Assay results published in US6355799B1, “Substituted benzene compounds, process for their preparation, and herbicidal and defoliant compositions containing them” (ISK Americas Incorporated, priority 1997, dated 2002).

Legend:
Type in all cases: in vivo
[1] = tested on: field corn (Zea mays L., var. Dekalb 535, CORN); test: Post-emerge test, crop safety; settings: phytotoxicity rating 0-100 (0 no damage, 100 complete death), 14 days after application
Summary of the method: (§1)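 Applied at 15–1000 g ai/ha from acetone in 187 l/ha spray volume. Post-emergence applications included 0.25% v/v non-ionic surfactant and reached plants sown 8–21 days before. Pre-emergence applications were incorporated by surface watering. Efficacy or crop damage was rated on a 0–100 scale after 14 days.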

[2] = tested on: upland rice (Oryza sp., var. Tebonnet, RICE); test: Post-emerge test, crop safety; settings: phytotoxicity rating 0-100 (0 no damage, 100 complete death), 14 days after application
Summary of the method: as §1

[3] = tested on: common ragweed (Ambrosia artemisizfolia L., AMBEL); test: Pre-emerge test, greenhouse herbicide activity screening; settings: pre-emerge, rated 14 days after application, 0 = no damage, 100 = complete death
Summary of the method: as §1

[4] = tested on: velvetleaf (Abutilon theophrasti, ABUTH); test: as above; settings: pre-emerge, rated 14 days after application, 0 = no damage, 100 = complete death
Summary of the method: as §1

[5] = tested on: large crabgrass (Digitaria sanguinalis, DIGSA); test: as above; settings: pre-emerge, rated 14 days after application, 0 = no damage, 100 = complete death
Summary of the method: as §1

[6] = tested on: green foxtail (Setaria viridis, SETVI); test: as above; settings: pre-emerge, rated 14 days after application, 0 = no damage, 100 = complete death
Summary of the method: as §1

[7] = tested on: lambsquarters (Chenopodium album, CHEAL); test: as above; settings: pre-emerge, rated 14 days after application, 0 = no damage, 100 = complete death
Summary of the method: as §1

[8] = tested on: johnsongrass (Sorghum halepense, SORHA); test: as above; settings: pre-emerge, rated 14 days after application, 0 = no damage, 100 = complete death
Summary of the method: as §1

[9] = tested on: sicklepod (Cassia obtusifolia, CASOB); test: as above; settings: pre-emerge, rated 14 days after application, 0 = no damage, 100 = complete death
Summary of the method: as §1

[10] = tested on: ivyleaf morningglory (Ipomoea hederacea, IPOHE); test: as above; settings: pre-emerge, rated 14 days after application, 0 = no damage, 100 = complete death
Summary of the method: as §1

[11] = tested on: barnyardgrass (Echinochloa crus-galli, ECHCG); test: as above; settings: pre-emerge, rated 14 days after application, 0 = no damage, 100 = complete death
Summary of the method: as §1

[12] = tested on: common ragweed (Ambrosia artemisizfolia L., AMBEL); test: Post-emerge test, greenhouse herbicide activity screening; settings: phytotoxicity rating 0-100 (0 no damage, 100 complete death), 14 days after application
Summary of the method: (§2)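 Plants grown in 10 cm pots of sandy loam mix received acetone-dissolved compounds through a moving flat-fan nozzle. Doses ranged from 15 to 1000 g ai/ha. Pre-emerge pots were seeded one day earlier, post-emerge pots 8–21 days earlier. Fourteen days on, each pot was graded 0–100 for damage.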

[13] = tested on: velvetleaf (Abutilon theophrasti, ABUTH); test: as above; settings: phytotoxicity rating 0-100 (0 no damage, 100 complete death), 14 days after application
Summary of the method: as §2

[14] = tested on: large crabgrass (Digitaria sanguinalis, DIGSA); test: as above; settings: phytotoxicity rating 0-100 (0 no damage, 100 complete death), 14 days after application
Summary of the method: as §2

[15] = tested on: redroot pigweed (Amaranthus retroflexus, AMARE); test: as above; settings: phytotoxicity rating 0-100 (0 no damage, 100 complete death), 14 days after application
Summary of the method: as §2

[16] = tested on: lambsquarters (Chenopodium album, CHEAL); test: as above; settings: phytotoxicity rating 0-100 (0 no damage, 100 complete death), 14 days after application
Summary of the method: as §2

[17] = tested on: johnsongrass (Sorghum halepense, SORHA); test: as above; settings: phytotoxicity rating 0-100 (0 no damage, 100 complete death), 14 days after application
Summary of the method: as §2

[18] = tested on: sicklepod (Cassia obtusifolia, CASOB); test: as above; settings: phytotoxicity rating 0-100 (0 no damage, 100 complete death), 14 days after application
Summary of the method: as §2

[19] = tested on: ivyleaf morningglory (Ipomoea hederacea, IPOHE); test: as above; settings: phytotoxicity rating 0-100 (0 no damage, 100 complete death), 14 days after application
Summary of the method: as §2

[20] = tested on: barnyardgrass (Echinochloa crus-galli, ECHCG); test: as above; settings: phytotoxicity rating 0-100 (0 no damage, 100 complete death), 14 days after application
Summary of the method: as §2

[21] = tested on: field corn (Zea mays L., var. Dekalb 535, CORN); test: Pre-emerge test, crop safety; settings: pre-emerge, rated 14 days after application, 0 = no damage, 100 = complete death
Summary of the method: (§3)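 Compounds in acetone were track-sprayed at 187 l/ha, 15–1000 g ai/ha, onto sandy loam pots. Pre-emerge seeds were sown one day before spraying, with surface watering afterwards. Post-emerge plants were at the 2–3 leaf stage and sprayed with 0.25% v/v non-ionic surfactant. Injury was rated 0–100 at 14 days.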

[22] = tested on: upland rice (Oryza sp., var. Tebonnet, RICE); test: Pre-emerge test, crop safety; settings: pre-emerge, rated 14 days after application, 0 = no damage, 100 = complete death
Summary of the method: as §3

[23] = tested on: redroot pigweed (Amaranthus retroflexus, AMARE); test: Pre-emerge test, greenhouse herbicide activity screening; settings: pre-emerge, rated 14 days after application, 0 = no damage, 100 = complete death
Summary of the method: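 Herbicidal damage is scored 0 (none) to 100 (complete plant death) two weeks after a simulated field spray. Rates span 15–1000 g ai/ha, delivered in acetone at 187 l/ha. For post-emergence treatments, plants have 2–3 leaves and the spray carries 0.25% v/v non-ionic surfactant.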

Compound: COc1c(Cl)cc(F)c(-n2c(=O)cc(C(F)(F)F)n(C)c2=O)c1NC(=O)c1ccc(C(C)(C)C)cc1 [2-30]
- Post-emerge Herbicidal Activity CORN (crop damage) ([1]; 63 g ai/ha): 0
- Post-emerge Herbicidal Activity CORN (crop damage) ([1]; 250 g ai/ha): 0
- Post-emerge Herbicidal Activity RICE (crop damage) ([2]; 63 g ai/ha): 0
- Post-emerge Herbicidal Activity RICE (crop damage) ([2]; 250 g ai/ha): 0
- Pre-emerge Herbicidal Activity AMBEL (phytotoxicity rating, scale 0-100) ([3]; 63 g ai/ha): 0
- Pre-emerge Herbicidal Activity AMBEL (phytotoxicity rating, scale 0-100) ([3]; 250 g ai/ha): 0
- Pre-emerge Herbicidal Activity ABUTH (phytotoxicity rating, scale 0-100) ([4]; 63 g ai/ha): 0
- Pre-emerge Herbicidal Activity ABUTH (phytotoxicity rating, scale 0-100) ([4]; 250 g ai/ha): 20
- Pre-emerge Herbicidal Activity DIGSA (phytotoxicity rating, scale 0-100) ([5]; 63 g ai/ha): 0
- Pre-emerge Herbicidal Activity DIGSA (phytotoxicity rating, scale 0-100) ([5]; 250 g ai/ha): 0
- Pre-emerge Herbicidal Activity SETVI (phytotoxicity rating, scale 0-100) ([6]; 63 g ai/ha): 0
- Pre-emerge Herbicidal Activity SETVI (phytotoxicity rating, scale 0-100) ([6]; 250 g ai/ha): 20
- Pre-emerge Herbicidal Activity CHEAL (phytotoxicity rating, scale 0-100) ([7]; 63 g ai/ha): 0
- Pre-emerge Herbicidal Activity CHEAL (phytotoxicity rating, scale 0-100) ([7]; 250 g ai/ha): 70
- Pre-emerge Herbicidal Activity SORHA (phytotoxicity rating, scale 0-100) ([8]; 63 g ai/ha): 0
- Pre-emerge Herbicidal Activity SORHA (phytotoxicity rating, scale 0-100) ([8]; 250 g ai/ha): 0
- Pre-emerge Herbicidal Activity CASOB (phytotoxicity rating, scale 0-100) ([9]; 63 g ai/ha): 0
- Pre-emerge Herbicidal Activity CASOB (phytotoxicity rating, scale 0-100) ([9]; 250 g ai/ha): 0
- Pre-emerge Herbicidal Activity IPOHE (phytotoxicity rating, scale 0-100) ([10]; 63 g ai/ha): 0
- Pre-emerge Herbicidal Activity IPOHE (phytotoxicity rating, scale 0-100) ([10]; 250 g ai/ha): 0
- Pre-emerge Herbicidal Activity ECHCG (phytotoxicity rating, scale 0-100) ([11]; 63 g ai/ha): 0
- Pre-emerge Herbicidal Activity ECHCG (phytotoxicity rating, scale 0-100) ([11]; 250 g ai/ha): 0
- Post-emerge Herbicidal Activity AMBEL ([12]; 63 g ai/ha): 0
- Post-emerge Herbicidal Activity AMBEL ([12]; 250 g ai/ha): 10
- Post-emerge Herbicidal Activity ABUTH ([13]; 63 g ai/ha): 30
- Post-emerge Herbicidal Activity ABUTH ([13]; 250 g ai/ha): 70
- Post-emerge Herbicidal Activity DIGSA ([14]; 63 g ai/ha): 0
- Post-emerge Herbicidal Activity DIGSA ([14]; 250 g ai/ha): 0
- Post-emerge Herbicidal Activity AMARE ([15]; 63 g ai/ha): 0
- Post-emerge Herbicidal Activity AMARE ([15]; 250 g ai/ha): 20
- Post-emerge Herbicidal Activity CHEAL ([16]; 63 g ai/ha): 0
- Post-emerge Herbicidal Activity CHEAL ([16]; 250 g ai/ha): 50
- Post-emerge Herbicidal Activity SORHA ([17]; 63 g ai/ha): 0
- Post-emerge Herbicidal Activity SORHA ([17]; 250 g ai/ha): 0
- Post-emerge Herbicidal Activity CASOB ([18]; 63 g ai/ha): 0
- Post-emerge Herbicidal Activity CASOB ([18]; 250 g ai/ha): 0
- Post-emerge Herbicidal Activity IPOHE ([19]; 63 g ai/ha): 0
- Post-emerge Herbicidal Activity IPOHE ([19]; 250 g ai/ha): 20
- Post-emerge Herbicidal Activity ECHCG ([20]; 63 g ai/ha): 0
- Post-emerge Herbicidal Activity ECHCG ([20]; 250 g ai/ha): 0
- Pre-emerge crop damage CORN (phytotoxicity rating, scale 0-100) ([21]; 63 g ai/ha): 0
- Pre-emerge crop damage CORN (phytotoxicity rating, scale 0-100) ([21]; 250 g ai/ha): 0
- Pre-emerge crop damage RICE (phytotoxicity rating, scale 0-100) ([22]; 63 g ai/ha): 0
- Pre-emerge crop damage RICE (phytotoxicity rating, scale 0-100) ([22]; 250 g ai/ha): 0
- Pre-emerge Herbicidal Activity AMARE (phytotoxicity rating, scale 0-100) ([23]; 63 g ai/ha): 0
- Pre-emerge Herbicidal Activity AMARE (phytotoxicity rating, scale 0-100) ([23]; 250 g ai/ha): 0
